We go through 51 molecules from the Deep4Chem optical property database.

The data set can be described thus: solvent given as SMILES.

`CCCC1(CCC)c2cc(-c3cccc(Cc4ccc(/C=C/c5ccccc5)cc4)c3)ccc2-c2ccc(-c3cccc(Cc4ccc(/C=C/c5ccccc5)cc4)c3)cc21`: for the setting “in C1CCCCC1”, the emission maximum came out at 359 nm.
Turning to `Clc1nc(Cl)nc(Nc2cc3ccc4cccc5ccc(c2)c3c45)n1`, the emission maximum (in CCCCOCCCC) is 374 nm.
For the molecule `CC(C)(C)c1ccc(C2=CC(c3ccccc3)=[N+]3C2=Nc2c(-c4ccc(C(C)(C)C)cc4)cc(-c4ccccc4)n2[B-]3(F)F)cc1`, the emission maximum is, setting by setting: (in C1CCOC1) 681 nm; (in Cc1ccccc1) 683 nm; (in ClC(Cl)Cl) 680 nm.
Take `CCNc1ccc2c(c1)C(C)(C)C(=O)C=C2`: where the note is “in O”, the emission maximum worked out at 541 nm.
In the case of `C[Si]1(c2ccccc2)C(c2ccc3c(c2)c2ccccc2n3-c2ccccc2)=C(c2ccccc2)C(c2ccccc2)=C1c1ccc2c(c1)c1ccccc1n2-c1ccccc1`, the emission maximum (in C1CCOC1) is 526 nm.
In turn, `CCN(CC)c1ccc(C2=C3C(C)=CC(/C=C/c4ccc(OCC(=O)OC)cc4)=[N+]3[B-](F)(F)n3c(C)cc(C)c32)cc1` had an emission maximum (in CO) of 581 nm.
For the setting “in CS(C)=O”, `COc1cc2sc3nc(-c4ccccc4OC)sc3c2cc1OC` returned an emission maximum of 438 nm.
On to `F[B-]1(F)n2c(cc3sc4ccccc4c32)C(c2ccc(I)cc2)=C2C=c3sc4ccccc4c3=[N+]21`, for which, under “in ClC(Cl)Cl”, the emission maximum was determined as 673 nm.
As to `COc1ccc2c(c1)C(C)(C)c1c-2c2ccc(OC)cc2c2cc(OC)ccc12`, the emission maximum (in C1CCCCC1) was 398 nm.
`CC(C)[Si](C#Cc1c2cc3ccccc3cc2c(C#Cc2ccc(F)cc2)c2cc3ccccc3cc12)(C(C)C)C(C)C`: the emission maximum (in ClCCl) was 660 nm.
For the setting “in Cc1ccccc1”, `CCCCOC(=O)c1cc(Oc2ccc(C(C)(C)C)cc2)c2c3c(Cl)cc4c5c(cc(Cl)c(c6c(Oc7ccc(C(C)(C)C)cc7)cc(C(=O)OCCCC)c1c26)c53)C(=O)N(c1c(C(C)C)cccc1C(C)C)C4=O` displayed an emission maximum of 589 nm.
The molecule `Cc1cccc2nc3c(=O)n(C)c(=O)nc-3n(C)c12` registered an emission maximum (in CC#N) of 532 nm.
`C(#Cc1nc(C#Cc2ccccc2)c(C#Cc2ccccc2)c(C#Cc2ccccc2)c1C#Cc1ccccc1)c1ccccc1`: the emission maximum (in ClCCl) is 438 nm.
Turning to `COC(=O)C(NC(=O)OC(C)(C)C)c1ccc2oc(-c3ccc(C#N)cc3)nc2c1` (configuration not stated), the emission maximum (in CC1CCCCC1) was determined as 342 nm, the emission maximum (in CC#N) is listed as 384 nm and the emission maximum (in CO) amounted to 385 nm.
With `COc1cc2c(cc1OC)C1=C[C@H](c3ccc(Cl)cc3)C3(C(C#N)=C(C#N)N1CC2)c1ccccc1-c1ccccc13`, where the note is “in ClCCl”, the emission maximum is listed as 405 nm.
`CN(C)c1ccc(-c2cc(-c3ccc(C#N)cc3)nc(-c3ccccc3)n2)cc1` registered an emission maximum (in ClC(Cl)Cl) of 495 nm.
Molecule `Cc1ccc([N+]2=c3c4n(c5ccccc35)[B-](F)(F)[N+](c3ccc(C)cc3)=c3c=4n(c4ccccc34)[B-]2(F)F)cc1` yielded an emission maximum (in ClCCl) of 808 nm.
Under “in CC#N”, `CCOC(=O)c1c2c3c(ccc([N+](=O)[O-])c3c3cc4c(cc13)[Si](C)(C)O[Si]4(C)C)N(C)C2=O` had an emission maximum of 413 nm.
In turn, `CCCCCCN1C(=O)c2cccc3c(-c4ccc(-c5ccc6c7c(cccc57)C(=O)N(CCCCCC)C6=O)s4)ccc(c23)C1=O` came in with an emission maximum (in ClC(Cl)Cl) of 495 nm.
For the molecule `C1=C(c2ccc(-c3cccs3)s2)CCC(c2ccccc2)C1` (configuration not stated), the emission maximum reads like this: (in C1CCOC1) 412 nm; (in CC#N) 411 nm; (in CCCCCC) 409 nm; (in CCO) 411 nm; (in OCCOCCO) 412 nm; (in c1ccncc1) 417 nm.
In the case of `CCOC(=O)/C(C#N)=C\c1ccc2c(c1)c1ccccc1n2-c1ccc(OC)cc1`, the emission maximum is recorded as 460 nm (in C1CCOC1); 522 nm (in CC#N); 508 nm (in CC(C)=O); 479 nm (in CCOC(C)=O); 532 nm (in CO); 542 nm (in CS(C)=O). Moreover, the emission maximum runs as follows: (in Cc1ccccc1) 455 nm; (in ClC(Cl)Cl) 486 nm.
In the case of `C/C=C/C1=NC(=C\c2ccc(O)cc2)/C(=O)N1C`, the emission maximum was 472 nm (in ClC(Cl)Cl) and 460 nm (in O).
In turn, `c1cc2c3c(c1)-c1cccc4ccn(c14)B3n1ccc3cccc-2c31` registered an emission maximum (in C1CCOC1) of 387 nm.
In the case of `CC1(C)C(=O)C=Cc2ccc(N3CCC3)cc21`, the emission maximum (in O) amounted to 555 nm.
As for `CC1(C)c2ccccc2-c2cc3c(cc21)c1ccccc1n3-c1ccncc1`, the emission maximum (in ClCCl) is 370 nm.
On to `CCN1c2ccc(/C=N/Nc3ccccn3)cc2Sc2cc(/C=N/Nc3ccccn3)ccc21`, for which the emission maximum is, setting by setting: (in C1CCOC1) 495 nm; (in CS(C)=O) 507 nm; (in Cc1ccccc1) 491 nm; (in ClCCl) 498 nm.
For `N#Cc1nc(N(Cc2ccccc2Cl)Cc2ccccc2Cl)c(C#N)nc1N(Cc1ccccc1Cl)Cc1ccccc1Cl`, the emission maximum (in ClC(Cl)Cl) was 567 nm.
`CC1(C)C(/C=C/C2=C(Oc3ccc(CCN=C=S)cc3Br)C(=C/C=C3/N(CCCS(=O)(=O)[O-])c4ccccc4C3(C)C)/CCC2)=[N+](CCCS(=O)(=O)[O-])c2ccccc21` registered an emission maximum (in CO) of 798 nm.
The molecule `CC1=CC(C)=[N+]2C1=C(c1ccc(I)cc1)c1c(C)cc(C)n1[B-]2(OCc1ccccc1)OCc1ccccc1` came in with an emission maximum (in ClC(Cl)Cl) of 521.92 nm.
Consider `CCCCN(CCCC)c1ccc2c(c1)C#CC#Cc1cc(C(F)(F)F)ccc1C#Cc1cc(c3cc1C#Cc1ccc(C(F)(F)F)cc1C#CC#Cc1cc(N(CCCC)CCCC)ccc1C#C3)C#C2`, for which the emission maximum reads like this: (in ClCCl) 550 nm; (in c1ccccc1) 503 nm.
As to `N#Cc1c(-c2ccccc2)cc(-c2ccccc2)[nH]c1=S`, the emission maximum was 510 nm (in C1CCCCC1); 512 nm (in C1COCCO1); 495 nm (in CC#N); 506 nm (in CCCCO); 493 nm (in CCCO); 465 nm (in CCO). Moreover, the emission maximum is given as 502 nm (in CCOC(C)=O), 518 nm (in CCOCC), 505 nm (in CN(C)C=O) and 510 nm (in ClC(Cl)(Cl)Cl).
For the molecule `CCCCCCCC[Si](C)(C)c1cccc2ccccc12`, the emission maximum (in C1CCCCC1) turned out to be 329 nm.
Take `N#Cc1ccc(/C=C/C=C/C2=NC3C(=O)NC(N)=NC3N2[C@H]2C[C@H](O)[C@@H](CO)O2)cc1` (some centres not stated): the emission maximum is 486 nm (in C1COCCO1), 526 nm (in CC#N) and 522 nm (in CO).
Regarding `CN(C)c1ccc(/C=C/c2cnc(C#Cc3ccc(C#N)cc3)o2)cc1`, the emission maximum (in ClCCl) is on record as 515 nm.
`CC(=O)Nc1ccc2c3cccc4cccc(c5cccc1c52)c43`: the emission maximum reads like this: (in C1COCCO1) 471 nm; (in CC#N) 471 nm; (in CCCCOCCCC) 471 nm; (in CCOC(C)=O) 471 nm.
`c1ccc(-c2cc(-c3ccc4ccc5c(-c6ccnc(-c7ccccn7)c6)ccc6ccc3c4c65)ccn2)nc1`: the emission maximum amounted to 408 nm (in C1CCOC1); 418.01 nm (in CC#N); 408 nm (in CCC#N); 408 nm (in CCCC#N); 397.99 nm (in CCCCCC); 429 nm (in CCCO). Besides, the emission maximum runs as follows: (in CCO) 430 nm; (in CO) 430 nm; (in Cc1ccccc1) 410.17 nm.
On to `C[n+]1ccn(CCCCc2ccc3c(c2)c2ccccc2n3-c2cc(C#N)c(C#N)cc2-n2c3ccccc3c3cc(CCCCn4cc[n+](C)c4)ccc32)c1`, for which the emission maximum (in CC#N) came to 572 nm.
Take `CC(C)(C)c1ccc2cc3c4cccc5cccc(c6cc(C(C)(C)C)cc(c2c1)c63)c54`: for the setting “in CC1CCCCC1”, the emission maximum is reported as 445 nm.
Turning to `CCOC(=O)c1c(-c2cc3ccc(OCC=C(C)C)cc3oc2=O)nn(-c2ccccc2)c1C(=O)OCC`, the emission maximum (in ClCCl) was 425 nm.
With `O=C1c2cc(-n3c4ccccc4c4ccccc43)ccc2S(=O)(=O)c2ccc(-n3c4ccccc4c4ccccc43)cc21`, the emission maximum runs as follows: (in C1CCOC1) 592 nm; (in CCCCCC) 484 nm; (in Cc1ccccc1) 546 nm; (in ClC(Cl)Cl) 606 nm; (in ClCCl) 614 nm.
As to `c1ccc(-c2nc(-c3ccccc3)c(-c3ccccc3)[nH]2)cc1`, the emission maximum runs as follows: (in CC#N) 387 nm; (in CO) 386.5 nm.
Consider `CCOC(=O)CSc1nc(-c2ccc(OC)cc2)c(C)c(C#N)c1C#N`, for which, where the note is “in c1ccccc1”, the emission maximum is listed as 432 nm.
As for `CCN(CC)c1ccc2cc(-c3nc4cc(C(=O)Nc5ccccc5[N+](=O)[O-])ccc4o3)c(=O)oc2c1`, where the note is “in ClCCl”, the emission maximum was 498 nm.
In turn, `CCCCCCCCOC(=O)c1cc2ccc3ccccc3c2c(C#N)c1N` returned an emission maximum (in Cc1ccccc1) of 467 nm.
For the molecule `CCCCCCN1C(=O)c2cccc3cc(/N=C\c4c[nH]c5c4ccc4ccccc45)cc(c23)C1=O`, the emission maximum (in ClC(Cl)Cl) amounted to 501 nm.
With `c1ccc(-c2nc3sc4ccccc4c3s2)cc1`, the emission maximum (in CS(C)=O) worked out at 412 nm.
For `CC(C)(C)NC(=O)c1cccc2ccc3c4ccc(F)cc4c4cc(F)ccc4c3c12`, where the note is “in ClCCl”, the emission maximum was determined as 388 nm.
As for `N#CC1=C(c2ccc(-c3cccs3)s2)CCC1`, the emission maximum is, setting by setting: (in C1CCOC1) 441 nm; (in CC#N) 445 nm; (in CCCCCC) 428 nm; (in CCO) 443 nm; (in OCCOCCO) 455 nm; (in c1ccncc1) 450 nm.
`CCN(CC)c1ccc2cc(-c3nc4ccccc4n3-c3ccccc3)c(=O)oc2c1` returned an emission maximum (in ClCCl) of 479 nm.
Turning to `CCNc1cc2c(cc1C)C(c1ccccc1C(=O)O)=C1CCCC(/C=C/C3=[N+](C)c4ccc5ccccc5c4C3(C)C)=C1O2`, the emission maximum amounted to 749 nm (in CC#N), 741 nm (in CCO), 744 nm (in CO) and 748 nm (in ClC(Cl)Cl).
Regarding `CC(C)[Si](C#Cc1c2nc3c(nc2c(C#C[Si](C(C)C)(C(C)C)C(C)C)c2nc4c(nc12)C1c2ccccc2C4c2ccccc21)C1c2ccccc2C3c2ccccc21)(C(C)C)C(C)C`, the emission maximum (in CCCCCC) is recorded as 466 nm.
